Read-outs that look alike come from different tables or passages of the source. Numbered stars: 1 amine (or outer) side, 2 acyl side, 3 side chain; on linkers, the order of the positions; unused ones are H or OH. Bridge positions count the residues as written; N and C are the ends. Square brackets hold non-standard residues; d marks the D form. Peptide text beside a SMILES is read from it. X2 = O=C(O)CCCCCCCCCCCCCCCCCCC(=O)N[C@@H](CCCCNC(=O)CCOCCOCCNC(=O)CCOCCOCCNC(=O)CCC(=O)N(CCNC(=O)C[*:1])CCNC(=O)C[*:2])C(=O)O; Aib = CC(C)(N)C(=O)O
Experiments:
human GLP-1R = molecular target: T1, human GLP-1R (Homo sapiens, UniProt P43220); assay: In vitro receptor activation reporter assay (CRE-Luc), HEK293-GLP-1R-CRE; type: cell-based
T1 construct: expressed in transfected cells
Method: (§1) The EC50 of each peptide was determined using GraphPad Prism 6 software (GraphPad, San Diego, CA).
HEK293 cells were infected with lentivirus encoding firefly luciferase gene under the control of cAMP responsive element (CRE) promoter (Qiagen, The Netherlands) and then were selected using 1 g/mL puromycin (Life Technologies, Carlsbad) for 1 week. The surviving cells (referred to as CRE-HEK293) were expanded and then transfected with a G418 selective mammalian expression plasmid encoding human GLP-1R. In brief, GLP-1R plasmid was transfected into CRE-HEK293 cells using Lipofectamine 2000 and selected with 400 g/mL Geneticin (Life Technologies, Carlsbad, CA). Single colony stable cell line overexpressing CRE-luciferase and GLP1R was then established for in vitro activity assay.

human GIPR = molecular target: T2, human GIPR (Homo sapiens, UniProt P48546); assay: In vitro receptor activation reporter assay (CRE-Luc), HEK293-GIPR-CRE; type: cell-based
T2 construct: expressed in transfected cells
T2 sequence (P48546 22-466): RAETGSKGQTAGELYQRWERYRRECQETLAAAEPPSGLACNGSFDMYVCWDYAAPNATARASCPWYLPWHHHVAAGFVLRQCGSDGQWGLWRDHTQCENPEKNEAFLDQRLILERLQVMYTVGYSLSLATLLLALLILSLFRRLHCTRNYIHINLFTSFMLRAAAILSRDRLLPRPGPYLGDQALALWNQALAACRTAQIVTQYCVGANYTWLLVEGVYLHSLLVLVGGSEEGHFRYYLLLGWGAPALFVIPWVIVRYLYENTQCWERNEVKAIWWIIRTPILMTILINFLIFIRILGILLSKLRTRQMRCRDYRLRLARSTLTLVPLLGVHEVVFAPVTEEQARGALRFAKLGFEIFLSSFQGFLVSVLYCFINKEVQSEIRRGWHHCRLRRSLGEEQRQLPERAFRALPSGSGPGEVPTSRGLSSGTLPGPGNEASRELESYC
From the text: HEK293 cells were infected with lentivirus encoding firefly luciferase gene under the control of cAMP responsive element (CRE) promoter (Qiagen, The Netherlands) and then were selected using 1 g mL^−1 puromycin (Life Technologies, Carlsbad) for 1 week. The surviving cells (referred to as CRE-HEK293) were expanded and then transfected with a G418 selective mammalian expression plasmid encoding human GLP-1R or GIPR. In brief, GLP-1R or GIPR plasmid was transfected into CRE-HEK293 cells using Lipofectamine 2000 and selected with 400 g mL^−1 Geneticin (Life Technologies, Carlsbad, CA). Single colony stable cell line overexpressing CRE-luciferase and GLP-1R or GIPR (HEK293-GLP-1R-CRE or HEK293-GIPR-CRE) was then established for in vitro activity assay.
as §1

[1] = unnumbered table (Table 10), average of runs, read-out: GLP1R (nM) [EC50] average
[2] = unnumbered table (Table 10), run 02/19, read-out: GLP1R (nM) [EC50] 02/19
[3] = unnumbered table (Table 10), run 3/25, read-out: GLP1R (nM) [EC50] 3/25
[4] = unnumbered table (Table 10), run 03/26, read-out: GLP1R (nM) [EC50] 03/26
[5] = Table 9, read-out: EC50 [nM] GIPR

T1 sequence (P43220 24-463): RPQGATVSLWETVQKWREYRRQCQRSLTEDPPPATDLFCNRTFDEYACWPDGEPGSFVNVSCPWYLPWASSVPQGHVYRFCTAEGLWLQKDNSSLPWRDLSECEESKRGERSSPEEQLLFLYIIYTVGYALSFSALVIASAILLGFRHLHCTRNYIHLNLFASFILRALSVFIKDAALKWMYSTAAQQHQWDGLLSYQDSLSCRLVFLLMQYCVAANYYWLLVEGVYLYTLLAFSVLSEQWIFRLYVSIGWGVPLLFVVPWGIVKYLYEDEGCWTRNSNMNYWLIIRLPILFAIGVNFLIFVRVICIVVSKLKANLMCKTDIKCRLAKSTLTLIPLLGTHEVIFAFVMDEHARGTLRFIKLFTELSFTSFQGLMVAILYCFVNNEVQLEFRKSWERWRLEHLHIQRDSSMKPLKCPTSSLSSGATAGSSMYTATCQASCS

Row | SMILES | EC50 (human GLP-1R; [1]) [nM] | EC50 (human GLP-1R; [2]) [nM] | EC50 (human GLP-1R; [3]) [nM] | EC50 (human GLP-1R; [4]) [nM] | EC50 (human GIPR; [5]) [nM] | further results
1 | CC[C@H](C)[C@H](NC(=O)[C@H](CC(C)C)NC(=O)[C@H](Cc1c[nH]c2ccccc12)NC(=O)[C@@H]1CSCC(=O)NCCN(C(=O)CCC(=O)NCCOCCOCCC(=O)NCCOCCOCCC(=O)NCCCC[C@H](NC(=O)CCCCCCCCCCCCCCCCCCC(=O)O)C(=O)O)CCNC(=O)CSC[C@H](NC(=O)[C@H](CCCCN)NC(=O)[C@H](CC(=O)O)NC(=O)[C@H](CC(C)C)NC(=O)[C@H](Cc2ccc(O)cc2)NC(=O)[C@@H](NC(=O)[C@H](CO)NC(=O)[C@H](Cc2ccc(O)cc2)NC(=O)[C@H](CC(=O)O)NC(=O)[C@H](CC(N)=O)NC(=O)[C@@H](NC(=O)[C@H](Cc2ccc(O)cc2)NC(=O)[C@@H](NC(=O)CNC(=O)[C@H](CCC(=O)O)NC(=O)C(C)(C)NC(=O)[C@@H](N)Cc2ccc(O)cc2)[C@@H](C)O)[C@@H](C)O)[C@@H](C)CC)C(=O)N[C@@H](C)C(=O)N[C@@H](C)C(=O)NC(C)(C)C(=O)N[C@@H](CCC(=O)O)C(=O)N[C@@H](Cc2ccccc2)C(=O)N[C@@H](C(C)C)C(=O)N1)C(=O)N[C@@H](C)C(=O)NCC(=O)NCC(=O)N1CCC[C@H]1C(=O)N[C@@H](CO)C(=O)N[C@@H](CO)C(=O)NCC(=O)N[C@@H](C)C(=O)N1CCC[C@H]1C(=O)N1CCC[C@H]1C(=O)N1CCC[C@H]1C(=O)N[C@@H](CO)C(N)=O [6Y, 8N, 27I, C(17-24) - C20L5A, YAibEGT-YTNDY-SIYLD-KXAAAib-EFVXW-LIAGG-PSSGA-PPPS-NH2 (where each X is C)] (H-Y[Aib]EGTYTNDYSIYLDKCAA[Aib]EFVCWLIAGGPSSGAPPPS-NH2; linker 17-24 via X2) | 0.08 | 0.06 | 0.11 | 0.07 | – | EC50 (human GIPR; unnumbered table (Table 10), average of runs, read-out: GIPR (nM) [EC50] average): 2.88 nM; EC50 (human GIPR; unnumbered table (Table 10), run 02/19, read-out: GIPR (nM) [EC50] 02/19): 2.48 nM; EC50 (human GIPR; unnumbered table (Table 10), run 03/26, read-out: GIPR (nM) [EC50] 03/26): 3.29 nM
2 | CC[C@H](C)[C@H](NC(=O)[C@H](CC(C)C)NC(=O)[C@H](Cc1c[nH]c2ccccc12)NC(=O)[C@@H]1CSCC(=O)NCCN(C(=O)CCC(=O)NCCOCCOCCC(=O)NCCOCCOCCC(=O)NCCCC[C@H](NC(=O)CCCCCCCCCCCCCCCCCCC(=O)O)C(=O)O)CCNC(=O)CSC[C@H](NC(=O)[C@H](CCCCN)NC(=O)[C@H](CC(=O)O)NC(=O)[C@H](CC(C)C)NC(=O)[C@H](Cc2ccc(O)cc2)NC(=O)[C@@H](NC(=O)[C@H](CO)NC(=O)[C@H](Cc2ccc(O)cc2)NC(=O)[C@H](CC(=O)O)NC(=O)[C@H](CO)NC(=O)[C@@H](NC(=O)[C@H](Cc2ccc(O)cc2)NC(=O)[C@@H](NC(=O)CNC(=O)[C@H](CCC(=O)O)NC(=O)C(C)(C)NC(=O)[C@@H](N)Cc2ccc(O)cc2)[C@@H](C)O)[C@@H](C)O)[C@@H](C)CC)C(=O)N[C@@H](C)C(=O)N[C@@H](C)C(=O)NC(C)(C)C(=O)N[C@@H](CCC(=O)O)C(=O)N[C@@H](Cc2ccccc2)C(=O)N[C@@H](C(C)C)C(=O)N1)C(=O)N[C@@H](C)C(=O)NCC(=O)NCC(=O)N1CCC[C@H]1C(=O)N[C@@H](CO)C(=O)N[C@@H](CO)C(=O)NCC(=O)N[C@@H](C)C(=O)N1CCC[C@H]1C(=O)N1CCC[C@H]1C(=O)N1CCC[C@H]1C(=O)N[C@@H](CO)C(N)=O [6Y, 271, C(17-24) - C20L5A, YAibEGT-YTSDY-SIYLD-KXAAAib-EFVXW-LIAGG-PSSGA-PPPS-NH2 (where each X is C)] (H-Y[Aib]EGTYTSDYSIYLDKCAA[Aib]EFVCWLIAGGPSSGAPPPS-NH2; linker 17-24 via X2) | 0.06 | 0.05 | 0.07 | 0.06 | – | –
3 | CC[C@H](C)[C@H](NC(=O)[C@H](CC(C)C)NC(=O)[C@H](Cc1c[nH]c2ccccc12)NC(=O)[C@@H]1CSCC(=O)NCCN(C(=O)CCC(=O)NCCOCCOCCC(=O)NCCOCCOCCC(=O)NCCCC[C@H](NC(=O)CCCCCCCCCCCCCCCCCCC(=O)O)C(=O)O)CCNC(=O)CSC[C@H](NC(=O)[C@H](CCCCN)NC(=O)[C@H](CC(=O)O)NC(=O)[C@H](CC(C)C)NC(=O)[C@H](Cc2ccc(O)cc2)NC(=O)[C@@H](NC(=O)[C@H](CO)NC(=O)[C@H](Cc2ccc(O)cc2)NC(=O)[C@H](CC(=O)O)NC(=O)[C@H](CO)NC(=O)[C@@H](NC(=O)[C@H](Cc2ccccc2)NC(=O)[C@@H](NC(=O)CNC(=O)[C@H](CCC(=O)O)NC(=O)C(C)(C)NC(=O)[C@@H](N)Cc2ccc(O)cc2)[C@@H](C)O)[C@@H](C)O)[C@@H](C)CC)C(=O)N[C@@H](C)C(=O)N[C@@H](CCC(N)=O)C(=O)NC(C)(C)C(=O)N[C@@H](C)C(=O)N[C@@H](Cc2ccccc2)C(=O)N[C@@H](C(C)C)C(=O)N1)C(=O)N[C@@H](C)C(=O)N[C@@H](CCC(N)=O)C(=O)NCC(=O)N1CCC[C@H]1C(=O)N[C@@H](CO)C(=O)N[C@@H](CO)C(=O)NCC(=O)N[C@@H](C)C(=O)N1CCC[C@H]1C(=O)N1CCC[C@H]1C(=O)N1CCC[C@H]1C(=O)N[C@@H](CO)C(N)=O [19Q, 21A, 27I, 29Q, C(17-24) - C20L5A, YAibEGT-FTSDY-SIYLD-KXAQAib-AFVXW-LIAQG-PSSGA-PPPS-NH2 (where each X is C)] | – | – | – | – | 0.02 | –
4 | CC[C@H](C)[C@H](NC(=O)[C@H](CO)NC(=O)[C@H](Cc1ccc(O)cc1)NC(=O)[C@H](CC(=O)O)NC(=O)[C@H](CO)NC(=O)[C@@H](NC(=O)[C@H](Cc1ccccc1)NC(=O)[C@@H](NC(=O)CNC(=O)[C@H](CCC(=O)O)NC(=O)C(C)(C)NC(=O)[C@@H](N)Cc1ccc(O)cc1)[C@@H](C)O)[C@@H](C)O)C(=O)N[C@@H](Cc1ccc(O)cc1)C(=O)N[C@H]1CSCC(=O)NCCN(C(=O)CCC(=O)NCCOCCOCCC(=O)NCCOCCOCCC(=O)NCCCC[C@H](NC(=O)CCCCCCCCCCCCCCCCC(=O)O)C(=O)O)CCNC(=O)CSC[C@@H](C(=O)N[C@@H](Cc2ccccc2)C(=O)N[C@H](C(=O)N[C@@H](CC(N)=O)C(=O)N[C@@H](Cc2c[nH]c3ccccc23)C(=O)N[C@@H](CC(C)C)C(=O)N[C@@H](CC(C)C)C(=O)N[C@@H](C)C(=O)NCC(=O)NCC(=O)N2CCC[C@H]2C(=O)N[C@@H](CO)C(=O)N[C@@H](CO)C(=O)NCC(=O)N[C@@H](C)C(=O)N2CCC[C@H]2C(=O)N2CCC[C@H]2C(=O)N2CCC[C@H]2C(=O)N[C@@H](CO)C(N)=O)C(C)C)NC(=O)C(C)(C)NC(=O)[C@H](C)NC(=O)[C@H](C)NC(=O)[C@H](CCC(N)=O)NC(=O)[C@H](CCCCN)NC(=O)[C@H](CC(=O)O)NC1=O [C(14-21) - L5A, YAibEGT-FTSDY-SIYXD-KQAAAib-XFVNW-LLAGG-PSSGA-PPPS-NH2 (where each X is C)] | – | – | – | – | 0.03 | EC50 (human GIPR; Table 8, read-out: EC50 [nM] GIPR): 0.03 nM
5 | CC[C@H](C)[C@H](NC(=O)[C@H](CO)NC(=O)[C@H](Cc1ccc(O)cc1)NC(=O)[C@H](CC(=O)O)NC(=O)[C@H](CO)NC(=O)[C@@H](NC(=O)[C@H](Cc1ccccc1)NC(=O)[C@@H](NC(=O)CNC(=O)[C@H](CCC(=O)O)NC(=O)C(C)(C)NC(=O)[C@@H](N)Cc1ccc(O)cc1)[C@@H](C)O)[C@@H](C)O)C(=O)N[C@@H](Cc1ccc(O)cc1)C(=O)N[C@H]1CCCCNC(=O)CN(C(=O)CCNC(=O)CCOCCOCCNC(=O)CCOCCOCCNC(=O)CC[C@H](NC(=O)CCCCCCCCCCCCCCCCC(=O)O)C(=O)O)CC(=O)NCCCC[C@@H](C(=O)N[C@@H](Cc2ccccc2)C(=O)N[C@H](C(=O)N[C@@H](CC(N)=O)C(=O)N[C@@H](Cc2c[nH]c3ccccc23)C(=O)N[C@@H](CC(C)C)C(=O)N[C@@H](CC(C)C)C(=O)N[C@@H](C)C(=O)NCC(=O)NCC(=O)N2CCC[C@H]2C(=O)N[C@@H](CO)C(=O)N[C@@H](CO)C(=O)NCC(=O)N[C@@H](C)C(=O)N2CCC[C@H]2C(=O)N2CCC[C@H]2C(=O)N2CCC[C@H]2C(=O)N[C@@H](CO)C(N)=O)C(C)C)NC(=O)C(C)(C)NC(=O)[C@H](C)NC(=O)[C@H](C)NC(=O)[C@H](CCC(N)=O)NC(=O)[C@H](CCCCN)NC(=O)[C@H](CC(=O)O)NC1=O [mCLZ715, YAibEGT-FTSDY-SIYXD-KQAAAib-XFVNW-LLAGG-PSSGA-PPPS-NH2 (where each X is K)] | – | – | – | – | – | EC50 (human GLP-1R; Table 7, read-out: EC50 [nM] GLP1R): 0.02 nM

Reference: patent US20250320252A1 (The Scripps Research Institute, priority 2021, published 2025)
